Measured values published in patent US20100048545A1, “Compounds and Compositions for Use in the Prevention and Treatment of Disorders of Fat Metabolism and Obesity” (INNODIA INC., priority 2006, published 2010).
“Also recorded” adds a separate entry of the source. Structures can show the parent of a compound that is named as a salt. One block for each molecule: values may come before it.

Assays:
[1] = system: Diet-Induced Obesity (DIO) mouse model; test: Compound 13e on body weight gain in the Diet-Induced Obesity (DIO) mouse model, 21 days; type: in vivo, C57BL/6 mice
Method: The objective of this study was to determine the effect of one analog according to the invention, namely Compound 13e, on body weight gain in the Diet-Induced Obesity (DIO) mouse model.
C57BL/6 mice were received at 7-8 weeks of age and fed a high fat diet (60% of calories from fat) for 8 weeks. Fasted glycemia and body weight values were used to randomize the mice into control and treatment groups (n=8). The average basal glycemia was between 213 and 215 mg/dL for all groups. The animals were treated twice daily by oral gavage with Compound 13e (25 or 50 mg per kg of body weight), and the control group received vehicle (200 mM bicarbonate buffer/0.1% Tween-20™, pH=9) alone. The animals were treated for 21 days. Body weight of the mice was measured on a frequent basis during the treatment. At the end of the study, the epididymal fat pads were isolated and weighed. Data are expressed as mean±SEM of body weight and mean±SEM of fat pad weight.

[2] = system: C57BL/6 mice fed a high fat diet; test: Analogs and isomers of 4-hydroxyisoleucine on body weight gain in C57BL/6 mice fed a high fat diet, 3 days; type: in vivo; conditions: for body weight gain induced by the high fat diet: 100 mg/kg twice daily oral gavage; for efficacy relative to compound 14a: 100 mg/kg twice daily
Method: C57BL/6 mice were received at 6-7 weeks of age and fed a standard commercial chow for 1 week (acclimation period). The animals were randomized based on their body weight values, into control and treatment groups (n=6). Then, animals were shifted to a high fat diet (60% of calories from fat) and treated twice daily by oral gavage with 4-hydroxyisoleucine (4-OH, compound 14a) or different analogs and isomers of 4-OH at the dose of 100 mg per kg of body weight for 3 days. The control group (Control HFD) received vehicle (water) alone and a group was kept under standard chow (Control Lean). Body weight of the mice was recorded daily. Two different experiments were run and the effect on body weight gain of selected analogs and isomers according to the invention is presented in FIG. 30A (Experiment 1) and FIG. 30B (Experiment 2).

obese mice = test: Compound 22 and 4-hydroxyisoleucine on weight gain of obese mice, 21 days; type: in vivo, C57BL/6 mice
Method: The objective of the following study was to evaluate the effect of the lactone form of 4-hydroxyisoleucine (compound 22) on the weight gain of obese mice. 40 C57BL/6 mice were fed a high fat diet (60% of calories from fat) for 6 weeks in order to induce obesity. Animals were than randomized to 5 study groups of 8 mice each according to their body weight values. Thereafter, the animals were treated orally twice daily with either the water vehicle, 50 mg/kg of compound 22, 100 mg/kg of compound 22, 50 mg/kg of 4-hydroxyisoleucine or 100 mg/kg of 4-hydroxyisoleucine. The treatment lasted 21 days and body weight of mice were determined daily from day 1 to day 21 of the study.

3T3-L1 pre-adipocytes = test: Lipid accumulation in 3T3-L1 adipocytes (Oil red O, OD 490 nm); type: cell-based; conditions: 7 days in differentiation medium, compared to controls
Text: The objective of the study was to evaluate if the compounds of the present invention, and more particularly analogs of 4-Hydroxyisoleucine, can decrease the accumulation of lipids in pre-adipocytes induced to differentiate into functional adipocytes. […] Treating the fibroblasts with a differentiation medium containing insulin, dexamethasone and […] (IBMX) in the presence of serum induces these cells to become terminally differentiated adipocytes. These cells convert to spherical shape and accumulate lipid droplets.
3T3-L1 were cultured in presence of DMEM and 10% FBS for a week in 6-well plates. The medium was than changed to induce differentiation of cells into mature adipocytes. The medium consisted of DMEM, 10% FBS, 0.5 mM IBMX, 0.01 mg/ml insulin and 0.1 μM dexamethasone, with or without compounds of the present invention. The cells were cultured for 7 days and then stained with Oil red 0, a dye which specifically stain lipids. The fat content of treated and untreated cells was quantified by measuring the optical density (OD, 490 nm) with a spectrophotometer.

[3] = system: Diet Induced Obesity (DIO)-Mice; type: in vivo
Method: A total of 40 animals were used in the study. The animals were distributed into 5 groups (4 treated, 1 control group, all on high fat diet). Each group was composed of 8 animals.
4-OH was aliquoted and kept at 4° C. […] Mice from groups 4 and 5 were treated twice daily with 50 and 100 mg/kg of compound 65a. All groups were treated by oral gavage. Treatment commenced on Day 0 and ended on Day 7 (FIG. 37A). Body weights were measured daily.

DIO-mice = system: DIO-mice
Text: The objective of this study was to evaluate the effect of chronic administration of 4-hydroxyisoleucine (4-OH, compound 14a) and Rosiglitazone, administered alone or in combination, on food consumption and body weight gain of DIO-mice. Both parameters were monitored for 1 week prior to the commencement of treatment, then for the 28 days of treatment and for an additional 7 days post-treatment.
A total of 72 animals were used in the study. The animals were distributed into 6 groups (5 treated, 1 control group, all on high fat diet). Each group was composed of 12 animals. The mice were randomized according to body weight and basal glycemia values following a 5±0.5 hour fasting period.
For the four weeks of treatment, the test articles were dissolved in reverse osmosis water. 4-Hydroxyisoleucine was aliquoted and kept at 4° C. (administration to groups 2, 3, and 6), while Rosiglitazone was freshly prepared daily and kept at 4° C. between the AM and PM administration to groups 4, 5, and 6. Control animals received reverse osmosis water twice daily (group 1). Mice from groups 2 and 3 were treated twice daily with 4-OH at 50 and 100 mg/kg, respectively. Animals from groups 4 and 5 received 1.5 and 5 mg/kg of Rosiglitazone, respectively. […] All groups were treated by oral gavage. Treatment commenced on Day 0 and ended on Day 28 (FIGS. 18A and 18C.
Food consumption was measured and averaged on a weekly basis beginning one week before the start of treatment as shown in FIGS. 18B and 18D as week −1. Similarly, food consumption was monitored for one week after treatment was stopped and is shown as week 5 in FIGS. 18B and 18D, In FIG. 18B, the food consumption over time for various treatment groups is illustrated by the bar graph.

Compound: N[C@H](C(=O)O)[C@@H]1CCCC[C@H]1O [Compound 13e, (S)-2-amino-2-((1S,2R)-2-hydroxycyclohexyl)acetic acid]
epididymal fat pad weight ([1]; 25 or 50 mg/kg twice daily): reduction of epididymal fat pad weight
body weight gain (delta of body weight from Day 0) ([1]; 25 or 50 mg/kg twice daily oral gavage): reduction of body weight; also recorded: reduction in body weight gain compared to vehicle treated mice and this effect was dose-dependent

Compound: C[C@H]([C@@H](C)O)[C@@H](N)C(=O)O [Compound 14aa, (2R,3S,4R)-4-Hydroxyisoleucine]
body weight gain induced by the high fat diet [2]: reduced body weight gain induced by the high fat diet

Compound: CC1C(O)CN[C@@H]1C(=O)O (stereo partly shown) [Compound 22]
body weight (obese mice; 100 mg/kg orally twice daily, 21 days, vs water control, p<0.01): significant reduction of body weight compared to the water control group
white fat mass (epididymal fat) (obese mice; 100 mg/kg, end of treatment, p<0.01): loss of the white fat mass (epididymal fat)
weight loss relative to 4-hydroxyisoleucine (obese mice; same dose level of 100 mg/kg, p<0.05): significantly greater than the weight loss caused by 4-hydroxyisoleucine

Compound: CC(C)(C)C(O)CC(N)C(=O)O (stereo not shown) [Compound 62, 2-amino-4-hydroxy-5,5-dimethyl-hexanoic acid]
efficacy relative to compound 14a [2]: greater efficacy than the SRS isomer of 4-OH
body weight gain induced by the high fat diet [2]: reduced body weight gain induced by the high fat diet
lipid accumulation (3T3-L1 pre-adipocytes): dose-dependently decreased the lipid accumulation; also recorded: decrease of accumulation of lipids

Compound: CC1(O)CC(C(=O)O)NCC1O (stereo not shown) [Compound 65a, 4-methyl-4,5-dihydroxypipecolic acid]
efficacy relative to compound 14a [2]: greater efficacy than the SRS isomer of 4-OH
body weight gain induced by the high fat diet [2]: reduced body weight gain induced by the high fat diet
tolerability of treatment ([3]; 50 and 100 mg/kg twice daily oral gavage, one week): well tolerated
weight gain ([3]; 50 and 100 mg/kg twice daily, first week of treatment): moderation of weight gain was observed
food consumption ([3]; first week of treatment): slight decrease in food consumption

Compound: O=C(O)[C@@H]1C[C@H](O)CN1 [Compound 75, cis-4-hydroxyproline]
body weight gain induced by the high fat diet [2]: reduced body weight gain induced by the high fat diet
lipid accumulation (3T3-L1 pre-adipocytes): dose-dependently decreased the lipid accumulation; also recorded: decrease of accumulation of lipids

Compound: COC(=O)[C@@H]1C[C@H](O)CN1 [Compound 76, cis-4-hydroxyproline methyl ester HCl salt]
body weight gain induced by the high fat diet [2]: reduced body weight gain induced by the high fat diet
lipid accumulation (3T3-L1 pre-adipocytes; HCl salt): dose-dependently decreased the lipid accumulation; also recorded: decrease of accumulation of lipids

Compound: CC(=O)N[C@@H]1C(=O)O[C@@H](C)[C@@H]1C [Compound 104]
body weight gain induced by the high fat diet [2]: reduced body weight gain induced by the high fat diet

Compound: COC(=O)[C@H]1C[C@@H](O)CN1 [Compound 202]
body weight gain induced by the high fat diet [2]: reduced body weight gain induced by the high fat diet

food consumption (DIO-mice; Rosiglitazone 1.5 mg/kg alone): increase in food consumption
Compound: CN(CCOc1ccc(CC2SC(=O)NC2=O)cc1)c1ccccn1 (stereo not shown) [Rosiglitazone, reference compound]
weight (DIO-mice; Rosiglitazone alone, relative to the other groups): significant increase in weight relative to the other groups
